This is an account of results in PubChem BioAssay (NCI).

“And” between values parts separate entries of the source, which are not always exact repeats. Identical values can stand only once.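 Compound exposure: 48 hours, 5 concentrations, 96-well plates. GI50: concentration for 50% inhibition of growth. The concentration for full growth arrest is given as TGI.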

Common to all, as to experiment: growth of human tumour cells (NCI), 48 h
Assay [1] relates to MOLT-4 leukemia.
In assay [2] the test system is HCT-116 colon.
Assay [3] concerns SF-539 CNS.
The subject of assay [4] is PC-3 prostate.
Assay [5] concerns SW-620 colon.
Assay [6] concerns T-47D breast.
The subject of assay [7] is SF-268 CNS.
The test system of assay [8] is RXF 393 renal.
For assay [9], the system named is HCC-2998 colon.
Assay [10] has as its system SNB-75 CNS.
Assay [11] deals with OVCAR-4 ovarian.
In assay [12] the test system is CCRF-CEM leukemia.

With `Cc1ccc(S(=O)(=O)C2=C(C(C)C)N=NC2(C)C)cc1`, the TGI in assay [1], in assay [2], in assay [3], in assay [4], in [5] and in assay [6] was over 100 µM throughout. The TGI in assay [7], in assay [8], in [9], in assay [10] and in assay [11] was over 100 µM each time.

Consider `COc1ccc2nc(-c3ccccc3)c(=O)[nH]c2c1`, for which the TGI in assay [1], in assay [2], in assay [3], in assay [4], in assay [5] and in [6] was over 100 µM each time. The TGI in assay [7], in assay [8], in assay [9], in assay [10] and in [12] was over 100 µM throughout.

In the case of `O=C1C(Br)=CC2(C=C1Br)CCNC1=C2C(=O)c2ncccc2C1=O`, the TGI in assay [2] was found to be 1.74 µM; in [3], 0.841 µM; in assay [4], 8.59 µM; in [5], 2.73 µM; in assay [6], 4.48 µM; in assay [7], 4.99 µM. For the same molecule, the TGI turned out to be 2.65 µM in [8]; 4.23 µM in [9]; 2.9 µM in [10]; 6.82 µM in assay [12]; 2.48 µM in assay [11].

`CC1(C)O[C@H]2OC(CO)C(N=[N+]=[N-])[C@H]2O1` (some centres not stated): the TGI in [1], in assay [2], in [3], in assay [4], in assay [5] and in [6] was over 100 µM each time. For the same molecule, the TGI in [7], in assay [9], in assay [10], in [12] and in assay [11] was over 100 µM throughout.

`C/C=C\C(CC(=O)NCC(=O)c1c[nH]c2ccccc12)CC(=O)OC` (configuration not stated): the TGI in assay [1], in assay [2], in assay [4], in assay [5], in [6] and in assay [7] was over 100 µM throughout. Moreover, the TGI in [8] was over 100 µM; in assay [9] it was over 100 µM; in assay [10], over 100 µM; in assay [12], 96.5 µM; in [11], over 100 µM.

For `C=C1CCCCCCCCC/C=C/1SCCCSC`, the TGI in assay [1], in assay [2], in assay [3], in assay [4], in [5] and in [6] was over 100 µM in each case. Besides, the TGI in assay [7], in assay [8], in assay [9] and in [11] was over 100 µM in each case.

For `Cc1ccc(C(=O)NCc2ccccc2)cc1N=NN(C)C`, the TGI in [1], in assay [2], in assay [3], in [4], in [5] and in assay [6] was over 100 µM in each case. Moreover, the TGI in assay [7], in [9], in assay [12] and in [11] was over 100 µM throughout.

`CC1(C)OP(=O)(O)C=C1Sc1ccc([N+](=O)[O-])cc1[N+](=O)[O-]`: the TGI in assay [2], in [3], in [4], in [5], in assay [6] and in [7] was over 100 µM in each case. Also, the TGI in [9], in assay [10] and in [11] was over 100 µM in each case.

As to `CC(=O)c1ccc2c(c1)C(=O)c1sc(C(C)=O)cc1C2=O`, the GI50 in assay [1] was 0.0664 µM; in [2], 0.349 µM; in assay [4], 2.55 µM; in assay [6], 1.73 µM; in [7] it was 0.819 µM; in [9], 1.71 µM. Moreover, the GI50 in [12] was 0.182 µM. Besides, the TGI in [2] was 14.3 µM and 12.3 µM; in assay [3] it was 1.86 µM; in [4], 7.12 µM and 11.3 µM; in assay [5], 50 µM; in assay [6], 3.01 µM and 4.31 µM; in [7], 3.85 µM and 3.41 µM. The TGI was 4.7 µM in [8]; 6.27 µM and 4.85 µM in assay [10].

With `O=C(Cn1c2ccc(Br)cc2c2nc3ccccc3nc21)NNC(=S)NC1CCCCC1`, the TGI turned out to be 22.6 µM in assay [1]; 26.9 µM in assay [2]; 24 µM in assay [4]; 29.2 µM in assay [5]; 45.8 µM in assay [6]; 39.6 µM in [7]. Moreover, the TGI is 23.4 µM in assay [8]; 34.6 µM in assay [9]; 47.5 µM in [10]; 18.8 µM in assay [12]; 41.2 µM in [11].

In the case of `COc1ccc(CNc2nc(NC3CCCCC3)nc(NC3CCCCC3)n2)cc1`, the TGI in [1] was over 100 µM; in assay [2], 16 µM; in assay [3], over 100 µM; in assay [4], over 100 µM; in [5], 50 µM; in assay [6] it was 44 µM. Also, the TGI in assay [7] is over 100 µM; in assay [8] it was 7.94 µM; in [10], over 100 µM; in assay [12], over 100 µM; in [11], over 100 µM.

Take `COc1cc(Nc2nc3cc(C(F)(F)F)ccc3nc2C(=O)O)cc(OC)c1OC`: the TGI in assay [1], in assay [2], in assay [3], in [5], in [6] and in [7] was over 100 µM each time. Moreover, the TGI in [8] was 70.2 µM; in [9], over 100 µM; in assay [10], over 100 µM; in [12], 90.8 µM; in assay [11], over 100 µM.
